Measurements taken from ChEMBL document CHEMBL2016513, “Synthesis and evaluation of human phosphodiesterases (PDE) 5 inhibitor analogs as trypanosomal PDE inhibitors. Part 1. Sildenafil analogs” (Bioorg Med Chem Lett, 2012).

How the values were obtained:
[1] = biological target: T1, Class 1 phosphodiesterase PDEB1 (Trypanosoma brucei) (UniProt Q8WQX9); assay: Inhibition of Trypanosoma brucei PDEB1 at 100 uM
T1 sequence (whole entry): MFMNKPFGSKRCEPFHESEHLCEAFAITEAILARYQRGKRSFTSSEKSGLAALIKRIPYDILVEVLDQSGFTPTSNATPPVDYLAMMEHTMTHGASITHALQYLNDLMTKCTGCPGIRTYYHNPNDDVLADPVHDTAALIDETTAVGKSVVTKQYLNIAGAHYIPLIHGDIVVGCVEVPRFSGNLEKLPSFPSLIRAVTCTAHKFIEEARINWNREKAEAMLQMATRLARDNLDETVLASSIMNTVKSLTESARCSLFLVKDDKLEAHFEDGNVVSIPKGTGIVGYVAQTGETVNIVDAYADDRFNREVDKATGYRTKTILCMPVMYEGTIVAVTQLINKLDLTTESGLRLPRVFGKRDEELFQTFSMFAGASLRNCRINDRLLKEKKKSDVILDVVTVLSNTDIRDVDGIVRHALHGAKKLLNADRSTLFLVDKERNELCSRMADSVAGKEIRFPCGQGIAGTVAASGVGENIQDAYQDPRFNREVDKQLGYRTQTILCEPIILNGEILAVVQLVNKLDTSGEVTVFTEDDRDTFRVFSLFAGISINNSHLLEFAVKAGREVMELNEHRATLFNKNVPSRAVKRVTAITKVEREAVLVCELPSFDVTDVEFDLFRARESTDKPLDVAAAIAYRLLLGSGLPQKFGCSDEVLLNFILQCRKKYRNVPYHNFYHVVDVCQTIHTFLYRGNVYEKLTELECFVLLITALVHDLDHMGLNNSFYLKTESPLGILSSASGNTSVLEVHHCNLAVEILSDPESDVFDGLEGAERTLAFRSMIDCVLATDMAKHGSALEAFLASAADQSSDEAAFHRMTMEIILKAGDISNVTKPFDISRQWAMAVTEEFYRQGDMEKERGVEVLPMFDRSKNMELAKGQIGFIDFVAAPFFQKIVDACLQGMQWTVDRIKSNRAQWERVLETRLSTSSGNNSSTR

[2] = Solubility of the compound in 10% DMSO; type: physicochemical

SMILES | inhibition [1] [%] | solubility [2]
CCOc1ccc(S(=O)(=O)N2CCN(C)CC2)cc1-c1nc2c(-c3ccccc3)n[nH]c2c(=O)[nH]1 | 70.9 | –
CCCc1nn(C)c2c(=O)[nH]c(-c3ncccc3C)nc12 | 72.1 | –
CCCc1nn(C)c2c(=O)[nH]c(-c3cn(C)cn3)nc12 | 5.3 | –
CCCc1n[nH]c2c(O)nc(-c3ccccc3OCC)nc12 | – | Insoluble
CCCc1nn(C)c2c(=O)[nH]c(-c3snnc3C)nc12 | 16.3 | –
CCCc1nn(C)c2c(=O)[nH]c(-c3ccccc3OCC)nc12 | 21.8 | –
CCCc1nn(C)c2c(=O)[nH]c(-c3cccnc3OC)nc12 | 77.2 | –
CCCc1nn(C)c2c(=O)[nH]c(-c3cnccn3)nc12 | 6.5 | –
CCCc1nn(C)c2c(=O)[nH]c(-c3cc(S(=O)(=O)N4CCN(C)CC4)ccc3OCC)nc12 | 51.5 | –
CCOc1ccc(S(=O)(=O)N2CCN(C)CC2)cc1-c1nc2c(C)nn(C)c2c(=O)[nH]1 | – | Insoluble
CCOc1ccccc1-c1nc2c(-c3ccccc3)nn(CC(N)=O)c2c(=O)[nH]1 | 7 | –
CCOc1ccc(S(=O)(=O)N2CCN(C)CC2)cc1-c1nc2c(-c3ccccc3)nn(C)c2c(=O)[nH]1 | 17.5 | –
CCCc1nn(C)c2c(=O)[nH]c(-c3ccoc3)nc12 | 13.8 | –
CCCc1nn(C)c2c(=O)[nH]c(-c3oc(C)nc3C)nc12 | 29 | –
CCCc1nn(C)c2c(=O)[nH]c(-c3ccsc3)nc12 | – | Insoluble
CCCc1nn(C)c2c(=O)[nH]c(-c3cnc(C)cn3)nc12 | 30 | –
CCCc1nn(C)c2c(=O)[nH]c(-c3ccc(=O)[nH]n3)nc12 | 11.1 | –

SMILES | inhibition [1] [%] | solubility [2]
CCOc1ccccc1-c1nc2c(-c3ccccc3)n[nH]c2c(=O)[nH]1 | 22.9 | –
CCCc1nn(-c2cccnc2)c2c(=O)[nH]c(-c3cc(S(=O)(=O)N4CCN(C)CC4)ccc3OCC)nc12 | 32.4 | –
CCCc1nn(C)c2c(=O)[nH]c(-c3cccc(S(=O)(=O)N4CCN(C)CC4)c3)nc12 | 8.4 | –
CCCc1n[nH]c2c(=O)[nH]c(-c3cc(S(=O)(=O)N4CCN(C)CC4)ccc3OCC)nc12 | 16 | –
CCCc1nn(C)c2c(=O)[nH]c(-c3cccnc3OC(C)C)nc12 | 53.8 | –
CCOc1ccccc1-c1nc2c(-c3ccccc3)nn(-c3ccccc3)c2c(=O)[nH]1 | – | Insoluble
CCCc1nn(C)c2c(=O)[nH]c(-c3ccnn3C)nc12 | – | Insoluble
CCCc1nn(C)c2c(=O)[nH]c(-c3cscn3)nc12 | 25.4 | –
CCCc1nn(C)c2c(=O)[nH]c(-c3ccc(O)cc3)nc12 | 24 | –
CCCc1nn(C)c2c(=O)[nH]c(-c3nnco3)nc12 | 3.2 | –
CCOc1ccccc1-c1nc2c(-c3ccccc3)nn(-c3cccnc3)c2c(=O)[nH]1 | – | Insoluble
CCCc1nn(C)c2c(=O)[nH]c(-c3cccnc3O)nc12 | 22.5 | –
CCCc1nn(C)c2c(=O)[nH]c(-c3nccnc3N)nc12 | 14.1 | –
CCCc1nn(C)c2c(=O)[nH]c(-c3cn(C)nc3C)nc12 | 7.2 | –
CCOc1ccc(S(=O)(=O)N2CCN(C)CC2)cc1-c1nc2cnn(C)c2c(=O)[nH]1 | 13.6 | –
CCCc1nn(C)c2c(=O)[nH]c(-c3cccnc3OCC)nc12 | 41.5 | –
